In patent US10821115B2, “Compounds that inhibit Mcl-1 protein” (priority 2017, dated 2020) one finds IC50 data, which are given here for 16 compounds.

The first assay deals with human multiple myeloma cell line, OPM-2. The assay can be described thus: Cell viability assay (OPM-2 10 FBS), CellTiter-Glo. In kind it is cell-based. To be noted: Homo sapiens, OPM-2, 16 h, read-out: OPM-2 10% FBS IC50 IP, OPM-2 cells, 10% FBS, 16 h, CellTiter-Glo. As for the experimental part:
Cell viability assay (OPM-2 10 FBS)
The human multiple myeloma cell line, OPM-2, was cultured in complete growth medium containing RPMI 1640 and 10% fetal bovine serum (FBS). Cells were seeded into 384-well plates at 3000 cells/well density in complete growth medium containing 10% FBS, and incubated for 16 h with serially diluted test compounds in a 37° C. incubator with 5% CO2. Cell viability was tested using CellTiter-Glo® assay (Promega, Madison, Wis.) according to the manufacturer recommendations. Luminescence was determined using an EnVision® Multilabel plate reader 25 min after the addition of detection reagent. IC50 values were then calculated with Xlfit using a logistical 4-parameter fit model in GraphPad Prism (GraphPad Software, San Diego, Calif.) or in Genedata Screener® (Genedata, Basel, Switzerland).
For `CO[C@@]1(CC(=O)NCc2ncco2)/C=C/C[C@H](C)[C@@H](C)S(=O)(=O)NC(=O)c2ccc3c(c2)N(C[C@@H]2CC[C@H]21)C[C@@]1(CCCc2cc(Cl)ccc21)CO3` [Example 100577, 2-((1S,3′R,6′R,7′S,8′E,11′S,12′R)-6-chloro-7′-methoxy-11′,12′-dimethyl-13′,13′-dioxido-15′-oxo-3,4-dihydro-2H-spiro[naphthalene-1,22′-[20]oxa[13]thia[1,14]diazatetracyclo [14.7.2.0~3,6~.0~19,24~]pentacosa[8,16,18,24]tetraen]-7′-yl)-N-(1,3-oxazol-2-ylmethyl)acetamide], the IC50 stood at 2020 nM.
Same read-out and setting: next, `CO[C@@]1(CC(=O)NC(C)(C)C(=O)O)/C=C/C[C@H](C)[C@@H](C)S(=O)(=O)NC(=O)c2ccc3c(c2)N(C[C@@H]2CC[C@H]21)C[C@@]1(CCCc2cc(Cl)ccc21)CO3` [Example 100546, N-(((1S,3′R,6′R,7′S,8′E,11′S,12′R)-6-chloro-7′-methoxy-11′,12′-dimethyl-13′,13′-dioxido-15′-oxo-3,4-dihydro-2H-spiro[naphthalene-1,22′-[20]oxa[13]thia[1,14]diazatetracyclo [14.7.2.0~3,6~.0~19,24~]pentacosa[8,16,18,24]tetraen]-7′-yl)acetyl)-2-methylalanine]: 440 nM.
Same read-out and setting: the figure for `COC(=O)[C@H](NC(=O)C[C@]1(OC)/C=C/C[C@H](C)[C@@H](C)S(=O)(=O)NC(=O)c2ccc3c(c2)N(C[C@@H]2CC[C@H]21)C[C@@]1(CCCc2cc(Cl)ccc21)CO3)C(C)=O` [Example 100582] is 1120 nM; for `CO[C@@]1(CC(=O)NCCO)/C=C/C[C@H](C)[C@@H](C)S(=O)(=O)NC(=O)c2ccc3c(c2)N(C[C@@H]2CC[C@H]21)C[C@@]1(CCCc2cc(Cl)ccc21)CO3` [Example 100465, 2-((1S,3′R,6′R,7′S,8′E,11′S,12′R)-6-chloro-7′-methoxy-11′,12′-dimethyl-13′,13′-dioxido-15′-oxo-3,4-dihydro-2H-spiro[naphthalene-1,22′-[20]oxa[13]thia[1,14]diazatetracyclo [14.7.2.0~3,6~.0~19,24~]pentacosa[8,16,18,24]tetraen]-7′-yl)-N-(2-hydroxyethyl)acetamide] it is 729 nM; for `CO[C@]1(c2cccc(F)n2)/C=C/C[C@H](C)[C@@H](C)S(=O)(=O)NC(=O)c2ccc3c(c2)N(C[C@@H]2CC[C@H]21)C[C@@]1(CCCc2cc(Cl)ccc21)CO3` [Example 100340, (1S,3′R,6′R,7′R,8′E,11′S,12′R)-6-chloro-7′-(6-fluoro-2-pyridinyl)-7′-methoxy-11′,12′-dimethyl-3,4-dihydro-2H,15′H-spiro[naphthalene-1,22′-[20]oxa[13]thia[1,14]diazatetracyclo [14.7.2.0~3,6~.0~19,24~]pentacosa[8,16,18,24]tetraen]-15′-one 13′,13′-dioxide] it is 308 nM.

The assay is the same for the next values; noted with them: Homo sapiens, OPM-2, 16 h, read-out: OPM-2 10% FBS IC50 IP, OPM-2 cells, 10% FBS, 16 h incubation.
With `CO[C@]1(CN2CCN3CCCC[C@H]3C2)/C=C/C[C@H](C)[C@@H](C)S(=O)(=O)NC(=O)c2ccc3c(c2)N(C[C@@H]2CC[C@H]21)C[C@@]1(CCCc2cc(Cl)ccc21)CO3` [Example 78, (1S,3′R,6′R,7′R,8′E,11′S,12′R)-6-chloro-7′-methoxy-11′,12′-dimethyl-7′-((9aS)-octahydro-2H-pyrido[1,2-a]pyrazin-2-ylmethyl)-3,4-dihydro-2H,15′H-spiro[naphthalene-1,22′-[20]oxa[13]thia[1,14]diazateracyclo [14.7.2.0~3,6~.0~19,24~]pentacosa[8,16,18,24]tetraen]-15′-one 13′,13′-dioxide], the IC50 was 175 nM.
With `CCO[C@]1(CN2CCN(C(COC)COC)CC2)/C=C/C[C@H](C)[C@@H](C)S(=O)(=O)NC(=O)c2ccc3c(c2)N(C[C@@H]2CC[C@H]21)C[C@@]1(CCCc2cc(Cl)ccc21)CO3` [Example 116, (1S,3′R,6′R,7′R,8′E,11′S,12′R)-6-chloro-7′-ethoxy-7′-((4-(2-methoxy-1-(methoxymethyl)ethyl)-1-piperazinyl)methyl)-11′,12′-dimethyl-3,4-dihydro-2H,15′H-spiro[naphthalene-1,22′-[20]oxa[13]thia[1,14]diazatetracyclo [14.7.2.0~3,6~.0~19,24~]pentacosa[8,16,18,24]tetraen]-15′-one 13′,13′-dioxide], the IC50 came out at 387 nM.
For the compound `CCO[C@@]1(CN2CCN3CCCC[C@@H]3C2)/C=C/C[C@H](C)[C@@H](CCOC)S(=O)(=O)NC(=O)c2ccc3c(n2)N(C[C@@H]2CC[C@H]21)C[C@@]1(CCCc2cc(Cl)ccc21)CO3` [Example 370, (1S,3′R,6′R,7′S,8′E,11′S,12′R)-6-chloro-7′-ethoxy-12′-(2-methoxyethyl)-11′-methyl-7′-((9aR)-octahydro-2H-pyrido[1,2-a]pyrazin-2-ylmethyl)-3,4-dihydro-2H,15′H-spiro[naphthalene-1,22′-[20]oxa[13]thia[1,14,25]triazatetracyclo [14.7.2.0~3,6~.0~19,24~]pentacosa[8,16,18,24]tetraen]-15′-one 13′,13′-dioxide], the half-inhibitory concentration (IC50) stood at 369 nM.
Same read-out and setting: the figure for `CCO[C@]1(CN2CCN(C(C)(C)C)CC2)/C=C/C[C@H](C)[C@@H](C)S(=O)(=O)NC(=O)c2ccc3c(c2)N(C[C@@H]2CC[C@H]21)C[C@@]1(CCCc2cc(Cl)ccc21)CO3` [Example 6, (1S,3′R,6′R,7′R,8′E,11′S,12′R)-7′-((4-TERT-BUTYL-1-PIPERAZINYL)METHYL)-6-CHLORO-7′-ETHOXY-11′,12′-DIMETHYL-3,4-DIHYDRO-2H,15′H-SPIRO[NAPHTHALENE-1,22′-[20]OXA[13]THIA[1,14]DIAZATETRACYCLO[14.7.2.0-3,6˜.0˜19,24˜]PENT ACOSA[8,16,18,24]TETRAEN]-15′-ONE 13′,13′-DIOXIDE] is 76 nM; for `C[C@@H]1[C@@H](C)C/C=C/[C@@](O)(CNC(C)(C)C)[C@@H]2CC[C@H]2CN2C[C@@]3(CCCc4cc(Cl)ccc43)COc3ccc(cc32)C(=O)NS1(=O)=O` [Example 125, (1S,3′R,6′R,7′S,8′E,11′S,12′R)-7′-((tert-butylamino)methyl)-6-chloro-7′-hydroxy-11′,12′-dimethyl-3,4-dihydro-2H,15′H-spiro[naphthalene-1,22′-[20]oxa[13]thia[1,14]diazatetracyclo[14.7.2.0-3,6˜.0˜19,24˜]pentacosa[8,16,18,24]tetraen]-15′-one 13′,13′-dioxide] it is 1480 nM.

Staying with this assay, now noted: read-out: OPM-2 10% FBS IC50 IP; OPM-2 cells, 10% FBS, 16 h, CellTiter-Glo.
With `CO[C@@]1(C#CCCc2ccncn2)/C=C/C[C@H](C)[C@@H](C)S(=O)(=O)NC(=O)c2ccc3c(c2)N(C[C@@H]2CC[C@H]21)C[C@@]1(CCCc2cc(Cl)ccc21)CO3` [Example 100519, (1S,3′R,6′R,7′S,8′E,11′S,12′R)-6-chloro-7′-methoxy-11′,12′-dimethyl-7′-(4-(4-pyrimidinyl)-1-butyn-1-yl)-3,4-dihydro-2H,15′H-spiro[naphthalene-1,22′-[20]oxa[13]thia[1,14]diazatetracyclo [14.7.2.0~3,6~.0~19,24~]pentacosa[8,16,18,24]tetraen]-15′-one 13′,13′-dioxide], the IC50 is 138 nM.

The assay is the same for the next values; noted with them: read-out: OPM-2 10% FBS IC50 IP; OPM-2 cells, 10% FBS, 16 h incubation.
Turning to `CCO[C@]1(CN2CCN(C(C)C)[C@H](C)C2)/C=C/C[C@H](C)[C@@H](C)S(=O)(=O)NC(=O)c2ccc3c(c2)N(C[C@@H]2CC[C@H]21)C[C@@]1(CCCc2cc(Cl)ccc21)CO3` [Example 9, (1 S,3′R,6′R,7′R,8′E,11′S, 12′R)-6-CHLORO-7′-ETHOXY-11′,12′-DIMETHYL-7′-(((3R)-3-METHYL-4-(1-METHYLETHYL)-1-PIPERAZINYL)METHYL)-3,4-DIHYDRO-2H, 15′H-SPIRO[NAPHTHALENE-1,22′-[20]OXA[13]THIA[1,14]DIAZATETRACYCLO[14.7.2.0-3,6˜.0˜19,24˜]PENT ACOSA[8,16,18,24]TETRAEN]-15′-ONE 13′,13′-DIOXIDE], the IC50 came to 50 nM.
On the same count and under the same terms, the figure for `C[C@@H]1[C@@H](C)CCC[C@@](O)(CN2CCN3CCOC[C@@H]3C2)[C@@H]2CC[C@H]2CN2C[C@@]3(CCCc4cc(Cl)ccc43)COc3ccc(cc32)C(=O)NS1(=O)=O` [Example 7, (1S,3′R,6′R,7′S,11′S,12′R)-6-CHLORO-7′-((9AS)-HEXAHYDROPYRAZINO [2,1-C][1,4]OXAZIN-8(1H)-YLMETHYL)-7′-HYDROXY-11′,12′-DIMETHYL-3,4-DIHYDRO-2H, 15′H-SPIRO[NAPHTHALENE-1,22′-[20]OXA[13]THIA[1,14]DIAZATETRACYCLO[14.7.2.0-3,6˜.0˜19,24˜]PENT ACOSA[16,18,24]TRIEN]-15′-ONE 13′,13′-DIOXIDE] is 25 nM.
Still for that read-out and setting: next, `C[C@@H]1[C@@H](C)C/C=C/[C@@](O)(CN2CCN3CCOC[C@@H]3C2)[C@@H]2CC[C@H]2CN2C[C@@]3(CCCc4cc(Cl)ccc43)COc3ccc(cc32)C(=O)NS1(=O)=O` [Example 193, (1S,3′R,6′R,7′S,8′E,11′S,12′R)-6-chloro-7′-((9aS)-hexahydropyrazino[2,1-c][1,4]oxazin-8(1H)-ylmethyl)-7′-hydroxy-11′,12′-dimethyl-3,4-dihydro-2H, 15′H-spiro[naphthalene-1,22′-[20]oxa[13]thia[1,14]diazatetracyclo[14.7.2.0-3,6˜.0˜19,24˜]pentacosa[8,16,18,24]tetraen]-15′-one 13′,13′-dioxide]: 23 nM; `CO[C@@]1(CN2CCN3CCCC[C@@H]3C2)/C=C/C[C@H](C)[C@@H](Cc2ccccc2)S(=O)(=O)NC(=O)c2ccc3c(c2)N(C[C@@H]2CC[C@H]21)C[C@@]1(CCCc2cc(Cl)ccc21)CO3` (single isomer, unassigned) [Example 104]: 782 nM; `CO[C@@]1(CN2CCN3CCN(C(C)=O)C[C@@H]3C2)/C=C/C[C@H](C)[C@@H](C)S(=O)(=O)NC(=O)c2ccc3c(c2)N(C[C@@H]2CC[C@H]21)C[C@@]1(CCCc2cc(Cl)ccc21)CO3` (single isomer, unassigned) [Example 225]: 280 nM.
